One series relates to Rattus norvegicus. In words: Wake promoting activity in EEG/EMG Sprague-Dawley rat model assessed as slow wave sleep and rapid eye movement sleep time at 100 mg/kg, ip measured up to 3 hrs (reference value: 65 +/- 9 mins). Conditions: route intraperitoneal. It counts as functional.
In series [1] the target is Sodium-dependent serotonin transporter (Rattus norvegicus) (UniProt P31652). The experiment in a line: Inhibition of rat SERT at 10 uM.
The target of series [2] is Transporter (Rattus norvegicus) (UniProt Q63380). Conditions: 10 uM.
Transporter (Rattus norvegicus), sequence (Q63380 as listed by the source): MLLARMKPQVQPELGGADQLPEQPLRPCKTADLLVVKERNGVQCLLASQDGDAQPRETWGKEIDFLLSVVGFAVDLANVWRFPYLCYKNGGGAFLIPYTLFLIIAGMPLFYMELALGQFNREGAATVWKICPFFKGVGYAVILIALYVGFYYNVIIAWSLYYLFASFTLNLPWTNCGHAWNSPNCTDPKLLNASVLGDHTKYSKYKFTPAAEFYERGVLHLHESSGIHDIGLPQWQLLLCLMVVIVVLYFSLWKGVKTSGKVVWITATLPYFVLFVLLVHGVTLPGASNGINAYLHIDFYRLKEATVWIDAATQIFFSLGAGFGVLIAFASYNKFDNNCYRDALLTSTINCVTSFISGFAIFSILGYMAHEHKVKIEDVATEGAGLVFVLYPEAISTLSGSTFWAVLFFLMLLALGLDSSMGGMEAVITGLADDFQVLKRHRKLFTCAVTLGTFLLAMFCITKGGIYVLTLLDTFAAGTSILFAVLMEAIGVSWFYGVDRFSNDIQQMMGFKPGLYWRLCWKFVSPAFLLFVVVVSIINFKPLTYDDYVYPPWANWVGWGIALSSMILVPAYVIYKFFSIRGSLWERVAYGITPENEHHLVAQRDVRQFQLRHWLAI
Description: Inhibition of rat NET at 10 uM
Series [3] has as its target T1, Sodium-dependent dopamine transporter (Rattus norvegicus, UniProt P23977). In words: Inhibition of rat DAT.
For another series, the target named is Cytochrome P450 2D6 (Homo sapiens, UniProt P10635). The experiment in a line: Inhibition of CYP2D6. Type of series: ADME.
Cytochrome P450 2D6, sequence (P10635 whole entry): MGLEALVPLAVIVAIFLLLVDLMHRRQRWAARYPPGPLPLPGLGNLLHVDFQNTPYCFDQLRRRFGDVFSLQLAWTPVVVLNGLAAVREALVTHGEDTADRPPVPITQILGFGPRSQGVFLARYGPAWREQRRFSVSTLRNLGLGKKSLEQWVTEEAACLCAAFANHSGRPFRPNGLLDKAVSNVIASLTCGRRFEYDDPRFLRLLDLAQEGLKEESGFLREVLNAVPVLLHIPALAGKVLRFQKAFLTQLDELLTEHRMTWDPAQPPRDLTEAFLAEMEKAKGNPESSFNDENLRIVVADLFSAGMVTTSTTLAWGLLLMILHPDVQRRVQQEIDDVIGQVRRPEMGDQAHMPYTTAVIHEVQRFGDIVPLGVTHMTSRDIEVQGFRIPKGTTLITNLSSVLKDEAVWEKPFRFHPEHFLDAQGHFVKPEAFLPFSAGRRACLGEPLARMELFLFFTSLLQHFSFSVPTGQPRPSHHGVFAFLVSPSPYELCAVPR
In the next series the target is Cytochrome P450 2C9 (Homo sapiens, UniProt P11712). The experiment in a line: Inhibition of CYP2C9. It counts as ADME.
The target of series [4] is Sodium-dependent serotonin transporter (Rattus norvegicus, UniProt P31652). In words: Inhibition of rat SERT-mediated serotonin reuptake.
Sodium-dependent serotonin transporter, sequence (P31652 whole entry): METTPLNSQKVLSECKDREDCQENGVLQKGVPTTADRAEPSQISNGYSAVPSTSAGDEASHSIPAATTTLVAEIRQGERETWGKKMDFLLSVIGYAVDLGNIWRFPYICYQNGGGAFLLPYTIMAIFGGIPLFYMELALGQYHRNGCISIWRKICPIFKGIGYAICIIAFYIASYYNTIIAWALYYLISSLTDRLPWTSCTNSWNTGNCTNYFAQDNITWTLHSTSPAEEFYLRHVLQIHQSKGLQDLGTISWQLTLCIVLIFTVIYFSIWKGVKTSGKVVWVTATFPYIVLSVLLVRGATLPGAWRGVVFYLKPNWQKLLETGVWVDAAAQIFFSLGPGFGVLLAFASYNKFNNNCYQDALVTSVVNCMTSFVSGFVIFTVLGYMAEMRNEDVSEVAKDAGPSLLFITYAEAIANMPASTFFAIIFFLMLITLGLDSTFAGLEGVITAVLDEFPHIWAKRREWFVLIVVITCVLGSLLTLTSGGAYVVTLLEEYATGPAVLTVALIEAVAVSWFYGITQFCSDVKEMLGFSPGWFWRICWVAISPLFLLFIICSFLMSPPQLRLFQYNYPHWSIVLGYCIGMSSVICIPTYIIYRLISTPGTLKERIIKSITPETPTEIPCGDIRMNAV
The target of a further series is Transporter (Rattus norvegicus, UniProt Q63380). The experiment in a line: Inhibition of rat NET-mediated norepinephrine reuptake.
Transporter, sequence (Q63380 whole entry): as the sequence (Q63380 as listed by the source) above
Another series deals with Cytochrome P450 3A5 (Homo sapiens, UniProt P20815). The experiment in a line: Inhibition of CYP3A5. It counts as ADME.
Cytochrome P450 3A5, sequence (P20815 whole entry): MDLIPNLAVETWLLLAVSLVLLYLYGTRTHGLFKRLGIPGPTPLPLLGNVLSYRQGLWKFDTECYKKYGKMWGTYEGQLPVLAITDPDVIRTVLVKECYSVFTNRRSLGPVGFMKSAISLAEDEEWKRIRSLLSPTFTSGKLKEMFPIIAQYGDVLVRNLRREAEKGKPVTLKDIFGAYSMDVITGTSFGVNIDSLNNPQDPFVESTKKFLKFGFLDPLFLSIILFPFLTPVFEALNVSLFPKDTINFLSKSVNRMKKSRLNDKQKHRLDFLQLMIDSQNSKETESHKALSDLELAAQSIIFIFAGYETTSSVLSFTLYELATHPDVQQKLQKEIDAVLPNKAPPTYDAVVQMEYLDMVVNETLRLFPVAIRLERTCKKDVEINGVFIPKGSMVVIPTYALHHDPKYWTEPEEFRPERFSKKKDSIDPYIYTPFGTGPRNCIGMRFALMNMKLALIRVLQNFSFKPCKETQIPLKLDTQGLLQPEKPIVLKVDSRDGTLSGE
Another series addresses Cytochrome P450 3A4 (Homo sapiens, UniProt P08684). The experiment in a line: Inhibition of CYP3A4. It counts as ADME.
The next series addresses Cytochrome P450 2C19 (Homo sapiens, UniProt P33261). In words: Inhibition of CYP2C19. Type of series: ADME.
For another series, the target named is T2, CYP1A2 (Homo sapiens, UniProt P05177).
T2 sequence (P05177 whole entry): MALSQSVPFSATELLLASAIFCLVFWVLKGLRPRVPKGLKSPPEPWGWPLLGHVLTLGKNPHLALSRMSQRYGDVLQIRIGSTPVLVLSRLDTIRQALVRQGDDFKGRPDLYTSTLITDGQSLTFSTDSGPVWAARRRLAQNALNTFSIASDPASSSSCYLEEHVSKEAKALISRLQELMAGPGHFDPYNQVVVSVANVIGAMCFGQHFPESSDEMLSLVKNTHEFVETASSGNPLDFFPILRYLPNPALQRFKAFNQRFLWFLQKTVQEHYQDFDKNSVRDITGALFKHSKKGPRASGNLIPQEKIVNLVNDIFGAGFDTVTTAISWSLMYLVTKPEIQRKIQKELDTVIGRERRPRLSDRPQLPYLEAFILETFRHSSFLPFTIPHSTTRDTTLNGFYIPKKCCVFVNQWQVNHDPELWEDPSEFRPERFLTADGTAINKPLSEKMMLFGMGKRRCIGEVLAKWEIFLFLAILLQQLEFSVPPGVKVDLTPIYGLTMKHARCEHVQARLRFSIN
In words: (§1) Inhibition of CYP1A2 ( at 100 uM). Type of series: ADME.

Series [5] concerns the target T1, Sodium-dependent dopamine transporter. In words: Inhibition of rat DAT-mediated dopamine reuptake.
Another series addresses T3, CYP1A1 (Homo sapiens, UniProt P04798).
T3 sequence (P04798 whole entry): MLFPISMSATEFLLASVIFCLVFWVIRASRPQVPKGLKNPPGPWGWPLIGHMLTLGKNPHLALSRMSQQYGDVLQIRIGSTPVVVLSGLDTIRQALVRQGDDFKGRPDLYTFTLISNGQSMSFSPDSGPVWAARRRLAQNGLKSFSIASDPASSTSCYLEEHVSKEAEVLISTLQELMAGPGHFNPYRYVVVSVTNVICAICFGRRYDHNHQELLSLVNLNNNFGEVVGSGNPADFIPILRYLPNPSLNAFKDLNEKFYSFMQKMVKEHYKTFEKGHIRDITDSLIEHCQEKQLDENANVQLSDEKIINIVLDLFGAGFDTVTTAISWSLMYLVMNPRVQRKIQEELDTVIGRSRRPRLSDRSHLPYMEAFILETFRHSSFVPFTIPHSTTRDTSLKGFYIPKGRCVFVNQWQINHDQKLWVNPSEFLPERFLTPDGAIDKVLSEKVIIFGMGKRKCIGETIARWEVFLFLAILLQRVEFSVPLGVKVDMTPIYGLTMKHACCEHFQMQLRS
The experiment in a line: (§2) Inhibition of CYP1A1 ( at 100 uM). It counts as ADME.

The next series deals with CYP3A5 (Homo sapiens, UniProt P20815). The experiment in a line: Inhibition of CYP3A5 at 10 uM. It counts as ADME.
CYP3A5, sequence (P20815 whole entry): as the sequence (P20815 whole entry) above
In a further series the target is CYP3A4 (Homo sapiens, UniProt P08684). In words: Inhibition of CYP3A4 at 10 uM. It counts as ADME.
CYP3A4, sequence (P08684 whole entry): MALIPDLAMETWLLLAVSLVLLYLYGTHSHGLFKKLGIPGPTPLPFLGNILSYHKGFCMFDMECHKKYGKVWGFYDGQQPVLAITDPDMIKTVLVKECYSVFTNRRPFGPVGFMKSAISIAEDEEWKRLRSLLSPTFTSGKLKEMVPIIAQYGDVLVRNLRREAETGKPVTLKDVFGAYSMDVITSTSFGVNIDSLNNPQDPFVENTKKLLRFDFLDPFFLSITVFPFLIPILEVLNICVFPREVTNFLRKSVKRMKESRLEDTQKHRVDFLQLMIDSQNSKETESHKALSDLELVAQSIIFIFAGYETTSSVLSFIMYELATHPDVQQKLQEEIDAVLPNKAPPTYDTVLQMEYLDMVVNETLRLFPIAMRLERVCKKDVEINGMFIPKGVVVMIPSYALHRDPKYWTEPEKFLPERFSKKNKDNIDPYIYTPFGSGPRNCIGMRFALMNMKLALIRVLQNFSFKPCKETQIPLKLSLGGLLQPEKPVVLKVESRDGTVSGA
The next series concerns the target CYP2D6 (Homo sapiens, UniProt P10635). In words: Inhibition of CYP2D6 at 10 uM. It counts as ADME.
Another series has as its target T4, Cytochrome P450 1A2 (Homo sapiens, UniProt P05177).
T4 sequence (P05177 whole entry): T2 sequence (P05177 whole entry)
Described as §1. Type of series: ADME. Conditions: 100 µM.

The next series concerns the target T5, Cytochrome P450 1A1 (Homo sapiens, UniProt P04798).
T5 sequence (P04798 whole entry): T3 sequence (P04798 whole entry)
Described as §2. It counts as ADME. Conditions: 100 µM.

Molecules are shown by their SMILES.

T1 sequence (P23977 whole entry): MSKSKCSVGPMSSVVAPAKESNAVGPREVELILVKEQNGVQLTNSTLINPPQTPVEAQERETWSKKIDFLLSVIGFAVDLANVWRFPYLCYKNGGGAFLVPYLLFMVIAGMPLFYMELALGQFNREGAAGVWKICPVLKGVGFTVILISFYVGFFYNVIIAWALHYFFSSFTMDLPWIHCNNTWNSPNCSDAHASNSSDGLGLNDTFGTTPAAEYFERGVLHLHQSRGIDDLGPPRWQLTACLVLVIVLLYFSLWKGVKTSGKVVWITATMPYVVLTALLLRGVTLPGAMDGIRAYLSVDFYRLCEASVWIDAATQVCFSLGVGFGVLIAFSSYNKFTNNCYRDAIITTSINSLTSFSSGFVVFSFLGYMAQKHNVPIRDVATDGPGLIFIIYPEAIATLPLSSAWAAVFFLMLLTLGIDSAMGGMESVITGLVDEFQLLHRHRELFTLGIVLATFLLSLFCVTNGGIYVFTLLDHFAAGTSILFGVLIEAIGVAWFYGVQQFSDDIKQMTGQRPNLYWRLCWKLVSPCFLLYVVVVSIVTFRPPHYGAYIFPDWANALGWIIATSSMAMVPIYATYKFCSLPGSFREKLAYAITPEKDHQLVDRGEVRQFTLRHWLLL
Sodium-dependent serotonin transporter (Rattus norvegicus), sequence (P31652 whole entry): as the sequence (P31652 whole entry) above
Cytochrome P450 3A4, sequence (P08684 whole entry): as the sequence (P08684 whole entry) above
Cytochrome P450 2C19, sequence (P33261 whole entry): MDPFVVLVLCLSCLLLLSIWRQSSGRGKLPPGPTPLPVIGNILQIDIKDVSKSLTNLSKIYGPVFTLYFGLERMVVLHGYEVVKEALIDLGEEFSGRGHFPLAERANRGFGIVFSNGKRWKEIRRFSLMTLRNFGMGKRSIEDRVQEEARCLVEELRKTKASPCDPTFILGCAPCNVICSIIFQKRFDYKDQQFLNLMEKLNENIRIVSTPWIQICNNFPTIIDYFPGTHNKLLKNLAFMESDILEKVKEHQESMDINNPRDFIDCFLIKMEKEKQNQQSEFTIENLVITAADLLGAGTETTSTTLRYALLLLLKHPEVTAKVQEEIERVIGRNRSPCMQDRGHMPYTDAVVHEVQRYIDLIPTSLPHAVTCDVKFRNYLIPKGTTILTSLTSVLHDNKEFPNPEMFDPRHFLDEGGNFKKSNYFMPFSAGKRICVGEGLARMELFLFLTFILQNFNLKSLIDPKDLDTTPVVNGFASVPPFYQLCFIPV
CYP2D6, sequence (P10635 whole entry): as the sequence (P10635 whole entry) above

Consider `NC(=O)C[S+]([O-])Cc1ccccc1Oc1ccc(F)cc1` (racemic), for which the Time in the series with Rattus norvegicus was found to be 123 min.
On to `NC(=O)C[S+]([O-])Cc1ccccc1Oc1ccc2ccccc2c1` (racemic), for which the Time in the series on Rattus norvegicus came to 131 min.
The same measure, in the same setting: to `NC(=O)C[S+]([O-])Cc1ccccc1Oc1cc(Cl)cc(Cl)c1` (racemic) belongs 117 min; to `NC(=O)C[S+]([O-])Cc1ccccc1Oc1ccc(Cl)c(F)c1` (racemic), 176 min.
Regarding `NC(=O)C[S+]([O-])Cc1ccccc1Oc1ccc(Cl)cc1` (racemic), the Time with Rattus norvegicus came out at 165 min.
For `NC(=O)C[S+]([O-])Cc1ccccc1Oc1cccc(Cl)c1Cl` (racemic), the Time in the series with Rattus norvegicus was found to be 120 min.
In the case of `NC(=O)C[S+]([O-])Cc1ccccc1Oc1ccc(Cl)c(Cl)c1` (single isomer, unassigned; (+)) [listing 1 of 2 here], the inhibition (commonly the relative decrease from the control value, in per cent) is 24% in series [1] and 39% in series [2].
On to `NC(=O)C[S+]([O-])Cc1ccccc1Oc1ccc(Cl)c(Cl)c1` (single isomer, unassigned; (-)) [listing 1 of 2 here], for which the IC50 (commonly the concentration needed to halve the response being measured) came out at 200 nM in series [3]; 106 µM against Cytochrome P450 2D6; 216 µM at Cytochrome P450 2C9; 31 µM in series [4]; 1300 nM at Transporter; 40 µM at Cytochrome P450 3A5. Moreover, the IC50 on Cytochrome P450 3A4 came out at 40 µM; against Cytochrome P450 2C19, 30 µM; in series [5], 1100 nM. In addition, the inhibition at 100 µM on CYP1A2 and on CYP1A1 was 10% in each case. Besides, the Time in the series with Rattus norvegicus (100 mg/kg) came to 168 min.
For the compound `NC(=O)C[S+]([O-])Cc1ccccc1Oc1ccc(Cl)cc1Cl` (racemic), in the series on Rattus norvegicus, the Time was 74 min.
On to `NC(=O)C[S+]([O-])Cc1ccccc1Oc1ccc(Cl)c(Cl)c1` (single isomer, unassigned; (-)) [listing 2 of 2 here], for which the inhibition in series [1] stood at 30%; in series [2], 48%.
`NC(=O)C[S+]([O-])C(c1ccccc1)c1ccccc1` (stereo unspecified) [MODAFINIL]: the inhibition at 10 µM against CYP3A5, at CYP3A4 and on CYP2D6 was below 10% in each case. Besides, the Time in the series with Rattus norvegicus is on record as 117 min.
As to `NC(=O)C[S+]([O-])Cc1ccccc1Oc1ccc(Cl)c(Cl)c1` (single isomer, unassigned; (+)) [listing 2 of 2 here], the IC50 in series [3] came to 900 nM; against Cytochrome P450 2D6, 89 µM; in series [4], 33 µM; against Transporter, 3100 nM; at Cytochrome P450 3A5, 32 µM; at Cytochrome P450 3A4 it was 32 µM. Further, the figures for the IC50 (against Cytochrome P450 2C19; in [5]) were 20 µM and 1100 nM, respectively. For the same compound, the “inhibition (INH)” value on Cytochrome P450 1A2 and at Cytochrome P450 1A1 was 18% each time. In addition, the Time in the series on Rattus norvegicus (100 mg/kg) is recorded as 167 min.
As for `NC(=O)C[S+]([O-])Cc1ccccc1Oc1ccc(Cl)c(Cl)c1` (racemic), the Time in the series on Rattus norvegicus (100 mg/kg) is 180 min.
As for `NC(=O)C[S+]([O-])Cc1ccc(Oc2ccc(Cl)c(Cl)c2)cc1` (stereo unspecified), in the series with Rattus norvegicus, the Time was 88 min.
Same read-out and setting: the same measure for `NC(=O)C[S+]([O-])Cc1ccccc1Oc1ccc(F)c(Cl)c1` (racemic): 160 min.

The values above are taken from ChEMBL document CHEMBL2040782 (Eur J Med Chem, 2012).
